From US20240217947A1, “Morpholinylquinazoline Compound, Pharmaceutical compositions thereof and Use Thereof” (SHANGHAI YINGLI PHARMACEUTICAL CO., LTD, priority 2022, published 2024)

Key:
Format in all cases: biochemical
PI3Kα = PI3Kα (Homo sapiens, UniProt P42336); assay: PI3Kα enzyme activity inhibition IC50 evaluation assay (ADP-Glo Kinase Assay); details: ATP 25 μM, PIP2 50 μg/mL, 1 hour room temperature, read-out: PI3K-α IC50
Method: (§1) Effec Example 1 IC50 evaluation assay for PI3Kα, PI3Kδ, PI3Kβ and PI3Kγ enzyme activity inhibition
(§2) The experiment was performed using the ADP-Glo Kinase Assay kit, following the instructions. The following buffer solutions were prepared: 50 mM HEPES, pH 7.5, 3 mM MgCl2, 1 mM EGTA, 100 mM NaCl, 0.03% CHAPS, 2 mM DTT. The test compound samples were dissolved in DMSO and added to the screening system at a certain starting concentration such as 10 μM, 3-fold dilution, while setting up both DMSO control and no kinase control. The optimal concentrations of PI3Kα, PI3Kδ, PI3Kβ and PI3Kγ enzymes, substrate (PIP2) and ATP were prepared in buffer. The enzyme reaction system included: buffer, ATP 25 μM, kinase substrate (PIP2, 50 μg/mL), kinases [PI3Kα (0.15 μg/mL), PI3Kδ (1.2 μg/mL), PI3Kβ (0.3 μg/mL) and PI3Kγ (2.5 μg/mL)], etc. The reaction system was reacted at room temperature for 1 hour. The reaction was terminated by adding a termination reagent (ADP-Glo reagent, 5 μL), and the ADP content in the system was detected using a detection reagent (Kinase Detection Reagent, 10 μL). Signal data were collected using the Envision instrument. Calculate the percentage of (%) inhibition according to the following formula: % inhibition=(DMSO control signal value−sample signal value)/(DMSO control signal value−no-kinase control signal value). The IC50 value was obtained by fitting the curve using the formula Y=Bottom+(Top-Bottom)/(1+(IC50/X)^HillSlope).

PI3Kβ = PI3Kβ (Homo sapiens, UniProt P42338); assay: PI3Kβ enzyme activity inhibition IC50 evaluation assay (ADP-Glo Kinase Assay); details: ATP 25 μM, PIP2 50 μg/mL, 1 hour room temperature, read-out: PI3K-β IC50
Chain of PI3Kβ (P42338 whole entry, species assumed): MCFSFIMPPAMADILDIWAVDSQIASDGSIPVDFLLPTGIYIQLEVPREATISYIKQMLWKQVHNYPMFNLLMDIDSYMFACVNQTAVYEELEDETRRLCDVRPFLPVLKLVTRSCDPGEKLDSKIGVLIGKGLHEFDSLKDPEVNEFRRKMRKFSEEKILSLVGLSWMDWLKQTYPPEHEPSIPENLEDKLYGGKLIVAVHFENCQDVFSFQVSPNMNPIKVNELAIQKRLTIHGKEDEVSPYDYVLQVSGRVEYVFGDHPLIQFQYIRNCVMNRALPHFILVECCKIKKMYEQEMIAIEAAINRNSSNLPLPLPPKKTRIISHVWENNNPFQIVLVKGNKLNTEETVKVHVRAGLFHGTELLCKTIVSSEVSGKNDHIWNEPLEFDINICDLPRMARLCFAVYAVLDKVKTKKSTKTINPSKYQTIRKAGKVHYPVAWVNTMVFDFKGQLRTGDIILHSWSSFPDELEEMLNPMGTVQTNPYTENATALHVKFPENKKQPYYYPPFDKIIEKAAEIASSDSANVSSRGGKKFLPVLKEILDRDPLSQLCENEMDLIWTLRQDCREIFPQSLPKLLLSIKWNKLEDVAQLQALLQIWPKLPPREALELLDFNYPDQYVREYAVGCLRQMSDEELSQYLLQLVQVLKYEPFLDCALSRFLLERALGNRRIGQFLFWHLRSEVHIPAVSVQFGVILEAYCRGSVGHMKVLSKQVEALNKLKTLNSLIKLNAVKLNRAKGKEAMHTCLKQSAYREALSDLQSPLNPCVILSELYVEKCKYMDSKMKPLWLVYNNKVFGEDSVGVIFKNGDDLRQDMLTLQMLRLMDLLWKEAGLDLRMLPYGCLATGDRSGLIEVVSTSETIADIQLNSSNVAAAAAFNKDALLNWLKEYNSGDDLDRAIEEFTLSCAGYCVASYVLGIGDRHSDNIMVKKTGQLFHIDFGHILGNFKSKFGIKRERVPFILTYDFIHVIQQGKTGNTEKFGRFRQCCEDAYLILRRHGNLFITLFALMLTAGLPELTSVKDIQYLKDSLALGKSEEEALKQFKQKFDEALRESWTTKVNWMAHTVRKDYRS
Chain of PI3Kβ (P27986 whole entry partner, species assumed): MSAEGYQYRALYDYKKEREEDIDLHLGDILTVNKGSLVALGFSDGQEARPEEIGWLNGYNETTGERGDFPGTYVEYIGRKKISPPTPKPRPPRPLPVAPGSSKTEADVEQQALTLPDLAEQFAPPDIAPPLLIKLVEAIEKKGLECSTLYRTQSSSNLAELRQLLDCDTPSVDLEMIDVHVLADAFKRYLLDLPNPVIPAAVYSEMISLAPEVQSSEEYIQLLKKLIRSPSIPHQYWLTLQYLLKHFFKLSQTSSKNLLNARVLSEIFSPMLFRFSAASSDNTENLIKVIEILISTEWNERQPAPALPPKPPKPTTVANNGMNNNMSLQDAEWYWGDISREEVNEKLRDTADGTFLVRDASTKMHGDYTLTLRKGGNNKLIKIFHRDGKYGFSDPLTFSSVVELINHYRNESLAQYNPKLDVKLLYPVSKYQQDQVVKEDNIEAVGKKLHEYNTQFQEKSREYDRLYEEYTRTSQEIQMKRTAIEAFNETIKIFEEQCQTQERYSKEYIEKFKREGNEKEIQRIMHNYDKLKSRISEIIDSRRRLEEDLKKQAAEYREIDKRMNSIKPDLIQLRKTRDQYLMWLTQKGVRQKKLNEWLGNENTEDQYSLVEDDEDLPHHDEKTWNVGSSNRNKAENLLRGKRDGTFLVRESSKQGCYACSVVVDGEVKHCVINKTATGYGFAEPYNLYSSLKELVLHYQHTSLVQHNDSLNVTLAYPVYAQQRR
Method: as §1, §2

PI3Kδ = PI3Kδ (Homo sapiens, UniProt O00329); assay: PI3Kδ enzyme activity inhibition IC50 evaluation assay (ADP-Glo Kinase Assay); details: ATP 25 μM, PIP2 50 μg/mL, 1 hour room temperature, read-out: PI3K-δ IC50
Chain of PI3Kδ (O00329 whole entry, species assumed): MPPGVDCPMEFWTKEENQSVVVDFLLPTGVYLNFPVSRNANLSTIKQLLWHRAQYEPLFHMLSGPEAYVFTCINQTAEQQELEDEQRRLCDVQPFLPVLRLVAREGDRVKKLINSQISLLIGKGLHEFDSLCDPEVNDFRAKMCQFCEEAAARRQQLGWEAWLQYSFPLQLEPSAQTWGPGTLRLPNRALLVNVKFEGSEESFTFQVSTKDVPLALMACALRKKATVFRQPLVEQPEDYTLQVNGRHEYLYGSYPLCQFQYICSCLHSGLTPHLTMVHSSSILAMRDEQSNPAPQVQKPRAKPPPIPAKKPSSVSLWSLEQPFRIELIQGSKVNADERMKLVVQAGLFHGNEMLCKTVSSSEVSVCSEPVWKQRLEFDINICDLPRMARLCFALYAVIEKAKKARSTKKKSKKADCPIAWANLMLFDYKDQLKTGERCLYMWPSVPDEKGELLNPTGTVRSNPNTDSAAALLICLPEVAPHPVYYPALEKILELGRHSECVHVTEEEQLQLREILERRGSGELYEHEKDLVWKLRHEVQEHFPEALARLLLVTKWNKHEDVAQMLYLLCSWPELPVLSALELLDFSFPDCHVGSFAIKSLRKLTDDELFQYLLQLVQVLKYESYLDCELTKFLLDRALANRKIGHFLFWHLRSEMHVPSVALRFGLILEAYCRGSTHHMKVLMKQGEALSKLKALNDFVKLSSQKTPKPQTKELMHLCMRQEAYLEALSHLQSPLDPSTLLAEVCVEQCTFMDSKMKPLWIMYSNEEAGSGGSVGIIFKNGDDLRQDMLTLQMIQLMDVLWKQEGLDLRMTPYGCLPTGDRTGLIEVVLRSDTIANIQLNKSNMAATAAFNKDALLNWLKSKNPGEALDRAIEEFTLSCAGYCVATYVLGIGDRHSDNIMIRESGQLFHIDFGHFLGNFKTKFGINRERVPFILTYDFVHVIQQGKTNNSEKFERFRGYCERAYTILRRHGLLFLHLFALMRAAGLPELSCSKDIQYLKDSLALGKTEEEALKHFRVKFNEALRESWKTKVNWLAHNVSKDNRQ
Chain of PI3Kδ (P27986 whole entry partner, species assumed): as the sequence (P27986 whole entry partner, species assumed) above
Method: as §1, §2

HDAC3 = HDAC3 (Homo sapiens, UniProt O15379); assay: HDAC3 enzyme activity inhibition IC50 evaluation experiment; details: HDAC3 7 nM, acetylated peptide 5 μM, trypsin, fluorescence
Chain of HDAC3 (O15379 whole entry, species assumed): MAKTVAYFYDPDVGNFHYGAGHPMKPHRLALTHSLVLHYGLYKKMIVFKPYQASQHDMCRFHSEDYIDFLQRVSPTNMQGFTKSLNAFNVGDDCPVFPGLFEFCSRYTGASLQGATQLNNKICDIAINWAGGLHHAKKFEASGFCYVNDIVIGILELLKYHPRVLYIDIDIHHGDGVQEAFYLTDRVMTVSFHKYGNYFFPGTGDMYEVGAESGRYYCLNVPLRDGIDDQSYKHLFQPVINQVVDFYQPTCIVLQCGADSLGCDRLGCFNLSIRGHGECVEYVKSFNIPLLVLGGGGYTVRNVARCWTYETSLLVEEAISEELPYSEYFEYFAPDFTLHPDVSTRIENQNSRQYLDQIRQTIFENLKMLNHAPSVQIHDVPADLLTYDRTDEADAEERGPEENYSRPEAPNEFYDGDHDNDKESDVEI
Chain of HDAC3 (Q9Y618 395-489 partner limits assumed, species assumed): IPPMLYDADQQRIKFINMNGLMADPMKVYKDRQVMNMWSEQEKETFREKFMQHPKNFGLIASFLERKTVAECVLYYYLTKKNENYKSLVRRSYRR
Method: Effect Example 2 HDAC1, HDAC2, HDAC3, HDAC6 enzyme activity inhibition IC50 evaluation experiment
Buffer solution (50 mM Tris 7.5, 0.01% Tween-20, 50 mM NaCl) was prepared according to the kit instructions, and the enzyme solution and substrate solution (acetylated peptide with the addition of trypsin) were prepared using the buffer solution. The test compound samples were dissolved with DMSO and added to the screening system at a certain starting concentration such as 10 μM, 3-fold dilution, while setting up a DMSO control and no-enzyme control. The enzyme reaction system includes: buffer, enzyme [final concentration: HDAC1=10 nM, HDAC2=4 nM, HDAC3=7 nM, HDAC6=5 nM], substrate (acetylated peptide) [final concentration: Peptide(HDAC1)=8 μM, Peptide(HDAC2)=10 μM, Peptide(HDAC3)=5 μM, Peptide(HDAC6)=11 μM], trypsin [final concentration: Trypsin(HDAC1,2,3)=0.05 μM, Trypsin(HDAC6)=0.1 μM], etc. The enzymes and compounds were reacted at room temperature for 15 min. After adding the substrate and Trypsin, centrifugation was performed for 1 min, and the fluorescence signal data (excitation wavelength 355 nM/emission wavelength 460 nm) was read continuously for 60 min using Envision, and the linear reaction segment was selected to obtain the slope and thus calculate the inhibition rate at that concentration. The IC50 value was obtained by fitting the curve using the formula Y=Bottom+(Top-Bottom)/(1+(IC50/X)^HillSlope).

HDAC10 = target: T1, HDAC10 (Homo sapiens, UniProt Q969S8); assay: HDAC10 enzyme activity inhibition IC50 evaluation experiment; details: HDAC10 10 nM, acetylated peptide 4 μM, 240 min, fluorescence
T1 sequence (Q969S8 1-669): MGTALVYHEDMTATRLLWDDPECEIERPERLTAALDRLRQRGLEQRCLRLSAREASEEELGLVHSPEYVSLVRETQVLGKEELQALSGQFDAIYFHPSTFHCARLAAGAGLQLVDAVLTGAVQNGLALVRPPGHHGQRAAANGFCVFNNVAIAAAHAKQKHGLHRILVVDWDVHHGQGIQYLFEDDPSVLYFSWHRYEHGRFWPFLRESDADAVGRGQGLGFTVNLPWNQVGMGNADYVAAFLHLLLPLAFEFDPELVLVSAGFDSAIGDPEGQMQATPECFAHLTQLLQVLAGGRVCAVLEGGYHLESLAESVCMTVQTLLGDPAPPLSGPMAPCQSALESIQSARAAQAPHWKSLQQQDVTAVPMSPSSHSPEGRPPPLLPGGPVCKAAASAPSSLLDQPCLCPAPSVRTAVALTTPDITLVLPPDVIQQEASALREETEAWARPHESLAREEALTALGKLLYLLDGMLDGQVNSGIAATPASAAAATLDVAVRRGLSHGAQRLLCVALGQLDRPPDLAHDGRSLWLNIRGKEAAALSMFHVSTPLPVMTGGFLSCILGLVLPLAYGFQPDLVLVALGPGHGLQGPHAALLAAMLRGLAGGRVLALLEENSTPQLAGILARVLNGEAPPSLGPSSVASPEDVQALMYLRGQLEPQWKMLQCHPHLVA
Method: Effect Example 3 HDAC8, HDAC10 enzyme activity inhibition IC50 evaluation experiment
Prepare buffer solution (HDAC8: 50 mM Tris 8.0, 2.7 mM KCl, 137 mM NaCl, 1 mM MgCl2, 1 mg/mL BSA; HDAC10: 50 mM Tris 7.5, 0.01% Tween-20, 50 mM NaCl, 0.05 mg/mL BSA) according to the kit instructions, prepared Enzyme solution, substrate solution (acetylated peptide) by using buffer. The test compound samples were dissolved in DMSO and was added to the screening system at a certain starting concentration such as 10 μM, 3-fold dilution, while setting up the DMSO control and the no-enzyme control. The enzyme reaction system includes: buffer, enzyme [final concentration: HDAC8=10 nM, HDAC10=10 nM], substrate (acetylated peptide) [final concentration: Peptide(HDAC8)=20 μM, Peptide(HDAC10)=4 μM], etc. The enzymes and compounds were reacted at room temperature for 15 minutes. After adding the substrate peptide the reaction system was reacted at room temperature for 240 min. Trypsin solution was added [final concentration: Trypsin=50p M] and incubation continued for 120 min. The fluorescence signal data (excitation wavelength 355 nM/emission wavelength 460 nm) was read with Envision instrument. Calculate the inhibition rate at this concentration based on the relative fluorescence units (RFU). The IC50 value was obtained by fitting a curve using the formula Y=Bottom+(Top-Bottom)/(1+(IC50/X)^HillSlope).

Chain of PI3Kα (P42336 whole entry, species assumed): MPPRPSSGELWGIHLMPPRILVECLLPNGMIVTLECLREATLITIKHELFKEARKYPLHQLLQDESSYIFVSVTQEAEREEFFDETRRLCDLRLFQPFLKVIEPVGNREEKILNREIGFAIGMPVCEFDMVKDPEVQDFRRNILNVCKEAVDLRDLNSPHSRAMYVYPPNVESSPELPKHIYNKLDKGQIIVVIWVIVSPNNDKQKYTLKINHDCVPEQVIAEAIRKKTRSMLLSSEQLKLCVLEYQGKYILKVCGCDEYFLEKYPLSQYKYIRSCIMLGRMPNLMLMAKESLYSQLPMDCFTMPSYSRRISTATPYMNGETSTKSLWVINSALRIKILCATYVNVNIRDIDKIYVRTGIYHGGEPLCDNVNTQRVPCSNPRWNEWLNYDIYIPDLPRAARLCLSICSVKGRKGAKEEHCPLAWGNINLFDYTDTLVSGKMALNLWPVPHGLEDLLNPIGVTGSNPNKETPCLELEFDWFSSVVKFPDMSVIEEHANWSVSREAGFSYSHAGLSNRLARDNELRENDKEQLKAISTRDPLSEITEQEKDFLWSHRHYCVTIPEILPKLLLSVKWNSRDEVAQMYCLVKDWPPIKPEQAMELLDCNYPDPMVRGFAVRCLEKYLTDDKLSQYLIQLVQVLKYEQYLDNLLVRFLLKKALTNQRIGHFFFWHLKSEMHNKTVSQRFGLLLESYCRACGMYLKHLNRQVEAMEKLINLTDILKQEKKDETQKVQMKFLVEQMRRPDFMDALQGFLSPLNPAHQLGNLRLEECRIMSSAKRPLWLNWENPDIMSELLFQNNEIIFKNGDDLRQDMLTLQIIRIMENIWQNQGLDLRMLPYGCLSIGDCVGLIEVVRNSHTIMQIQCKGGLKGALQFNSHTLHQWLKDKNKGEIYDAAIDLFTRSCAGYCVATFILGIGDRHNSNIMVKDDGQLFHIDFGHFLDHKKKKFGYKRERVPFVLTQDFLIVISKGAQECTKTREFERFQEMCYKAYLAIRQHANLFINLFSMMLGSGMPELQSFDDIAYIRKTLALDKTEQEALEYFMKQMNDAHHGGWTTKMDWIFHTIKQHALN
Chain of PI3Kα (P27986 whole entry partner, species assumed): as the sequence (P27986 whole entry partner, species assumed) above

Structure (SMILES)	IC50 (PI3Kα)	IC50 (PI3Kβ)	IC50 (PI3Kδ)	IC50 (HDAC3)	IC50 (HDAC10)
COc1ncc(-c2nc(N3CCOCC3)nc3c(CN4CCN(c5ncc(C(=O)NO)cn5)CC4)cc(F)cc23)cc1NS(C)(=O)=O [Compound 7]	100 to 1000 nM	100 to 1000 nM	≤ 10 nM	10 to 100 nM	100 to 1000 nM
COc1ncc(-c2nc(N3CCOCC3)nc3c(OCCCCCCC(=O)NO)cc(F)cc23)cc1NS(C)(=O)=O [Compound 9]	1000 to 10000 nM		10 to 100 nM	10 to 100 nM	100 to 1000 nM
COc1ncc(-c2nc(N3CCOCC3)nc3c(OC4CCN(c5ncc(C(=O)NO)cc5F)CC4)cc(F)cc23)cc1NS(C)(=O)=O [Compound 30]	100 to 1000 nM	1000 to 10000 nM	10 to 100 nM	100 to 1000 nM	100 to 1000 nM
COc1ncc(-c2nc(N3CCOCC3)nc3c(OC4CCN(c5ncc(C(=O)NO)cn5)CC4)cc(F)cc23)cc1NS(C)(=O)=O [Compound 39]			≤ 10 nM	10 to 100 nM	10 to 100 nM
COc1ncc(-c2nc(N3CCOCC3)nc3c(OC4CCN(c5ccc(C(=O)NO)cn5)CC4)cc(F)cc23)cc1NS(C)(=O)=O [Compound 40]			≤ 10 nM	100 to 1000 nM	
